Reference: US6939893B2, “Method of reducing toxicity of anticancer agents” (priority 2002, dated 2005)
Read-outs that look alike come from different tables or passages of the source.

Key:
normal nude mice [1] = assay: Comparison of MSC and SLM as modulators of irinotecan toxicity in normal nude mice (Example 5, FIG. 4); type: in vivo
Text: Each experimental group had 10 mice each from two (2) independent experiments.

normal mice = assay: Role of MSC dose in modulating irinotecan toxicity in normal mice (Example 6); type: in vivo
Text: In order to identify the minimum dose of MSC in the successful modulation of drug induced toxicities. […] Those skilled in the art will recognize that by conducting experiments as described herein, optimal doses of selenium for reducing toxicity of other chemotherapeutic agents and other anticancer modalities can be easily determined.

normal nude mice [2] = system: normal nude mice
normal nude mice [3] = assay: Effect of MSC on in vivo toxicity of irinotecan in normal nude mice (Example 1, FIG. 1); settings: for protection provided by MSC: MSC 0.2 mg/mouse/day ×42 p.o.
Method: The data are combined from at least three independent experiments with five (5) animals per experiment.
To illustrate this embodiment, nude mice were administered 42 single, daily oral doses of 0.2 mg/mouse of MSC.

normal rats = assay: Effect of MSC on toxicity of irinotecan in normal rats (Example 2, FIG. 2); type: in vivo
Text: The data are combined from 2-5 independent experiments with four (4) animals for each experiment.

rats = assay: Renal function test after CDDP ± MSC treatment in rats (Example 8); type: in vivo
Method: Reversal of renal toxicity induced by Cisplatin (CDDP). The dose limiting toxicity of therapeutic doses of cisplatin is kidney toxicity. Studies were performed to identify blood biological markers modified by CDDP and to evaluate the ability of MSC to reverse the process. Four groups of six animals each were used. The first group was untreated rats (control), the second group was given MSC at 0.75 mg/rat/day for 20 days and samples collected 2 hours after MSC administration on day 20. The third group was administered CDDP alone at 6 mg/kg by a single
i.v. injection and samples were collected on day 6. The fourth group was adminstered MSC (0.75 mg/rat/day for 20 days) with CDDP (6 mg/kg). CDDP was given 14 days after MSC administration and […] was given for 6 more days after CDDP administration. Samples were collected on day 6 after CDDP administration. Blood samples were collected at postmortem by cardiac puncture. Serum was obtained from the blood samples and urea nitrogen and creatinine concentrations were determined by standard methods using commercially kits (Ortho Clinical Diagnostics).

normal nude mice [4] = assay: Effect of MSC on toxicity of irinotecan, taxol, FU and cisplatin in normal nude mice (Example 4, FIG. 3); type: in vivo; settings: toxic doses above MTD: irinotecan weekly, taxol 75 mg/kg, 5-FU 150 mg/kg, cisplatin 15 mg/kg once i.v.
Text: In all cases drug doses used were toxic and above the maximum tolerated dose.

[5] = system: squamous cell carcinoma of the head and neck (A253); settings: MSC 0.2 mg/mouse/d × 42 p.o. where combined
[6] = day 22, 24 h after third irinotecan dose, irinotecan 200 mg/kg, MSC 0.2 mg/mouse
[7] = serum, Mean ± SD, CDDP 6 mg/kg single i.v., MSC 0.75 mg/rat daily for 20 days
[8] = irinotecan 200 mg/kg/wk×4 i.v. alone
[9] = irinotecan 100 mg/kg/wk × 4 i.v.
[10] = irinotecan 100 mg/kg/wk ×4 i.v. alone

## C[Se]C[C@H](N)C(=O)O [MSC, methylselenocysteine]
Normal nude mice [1]; irinotecan 200 mg/kg/wk×4 i.v., selenium compound p.o. daily for 28 days, first dose 7 days before irinotecan
  reduction of irinotecan toxicity by selenium compound: equally effective in reducing toxicity
Normal mice; MSC 0.01 to 0.2 mg/mouse/day×42 with irinotecan 200 mg/kg/wk×4
  MSC dose sufficient for complete protection against lethal doses of irinotecan: ≤ 0.01 mg/mouse
Normal mice; MSC as low as 0.01 mg/mouse with irinotecan 200 mg/kg/wk×4
  lethality with the combination: no lethality
Normal nude mice [2]; MSC 0.2 mg/mouse/day with irinotecan 200 mg/kg/wk
  prevention of neutropenia toxicity induced by irinotecan: effectively prevent neutropenia toxicity
Normal nude mice [2]; [6]
  HCT: haematocrit: 49.4 ± 2.4%
  HGB: hemoglobin: 16.8 ± 0.7 Gram/DL
  MCH: mean corpuscular hemoglobin: 18.4 ± 0.7 PICO Grams
  MCHC: mean corpuscular hemoglobin concentration: 34.0 ± 0.7%
  MCV: mean corpuscular volume: 54.0 ± 1.0 CU Microns
  PLT: platelets: 756 ± 231 THSN/CU MM
  RBC: red blood cell: 9.1 ± 0.5 Mill/CU MM
  WBC: white blood cell: 10.3 ± 4.5 THSN/CU MM
Normal nude mice [2]; irinotecan 200 mg/kg/wk×4
  protection against hematologic toxicity induced by irinotecan: complete protection
Normal nude mice [3]; irinotecan 100 mg/kg/wk ×4 i.v. + MSC 0.2 mg/mouse/day ×42 p.o.
  effect of adding MSC on overall body weight loss: decrease in overall body weight loss
Normal nude mice [3]; irinotecan 200 mg/kg/wk×4 (twice MTD)
  protection provided by MSC: 100%
Normal nude mice [3]; irinotecan 200 mg/kg/wk×4 i.v. with MSC 0.2 mg/mouse/day ×42 p.o.
  animals survived: 100%
Normal nude mice [3]; irinotecan 300 mg/kg/wk×4 (three times MTD)
  protection provided by MSC: 80%
Normal rats; rats (FIG. 2), irinotecan 200 mg/kg dose
  animals with severe diarrhea completely protected by MSC: 50%
rats; MSC 0.75 mg/rat/day with CDDP 6 mg/kg
  reversal of markers associated with kidney toxicity (BUN and creatinine): highly effective
rats; [7]
  Blood Urea Nitrogen: 12.7 ± 1.2 mg/dL
  Creatinine: 0.30 ± 0.00 mg/dL
Normal nude mice [4]
  effect of MSC on the survival rate of animals: protective effect

## CCc1c2c(nc3ccc(OC(=O)N4CCC(N5CCCCC5)CC4)cc13)-c1cc3c(c(=O)n1C2)COC(=O)[C@]3(O)CC [Irinotecan, irinotecan, reference compound]
Normal nude mice [1]; [8]
  lethality: approximately 55%
  survivors: 45%
Normal mice; irinotecan 200 mg/kg/wk×4 alone
  lethality: 50%
Normal nude mice [2]; [6]
  HCT: haematocrit: 40.9 ± 4.2%
  MCH: mean corpuscular hemoglobin: 17.5 ± 0.3 PICO Grams
  MCHC: mean corpuscular hemoglobin concentration: 32.7 ± 0.6%
  PLT: platelets: 836 ± 201 THSN/CU MM
  RBC: red blood cell: 7.8 ± 1.0 Mill/CU MM
  WBC: white blood cell: 3.5 ± 0.5 THSN/CU MM
Normal nude mice [2]; day 22, 24 h after third irinotecan dose, irinotecan 200 mg/kg, MSC 0.2 mg/mouse, listed as irinotecan
  WBC: white blood cell: 3.5 THSN/CU MM
Normal nude mice [2]; irinotecan 200 mg/kg/wk, versus control (9.4 to 3.5)
  reduction in white blood cells: over 60%
[5]; [9]
  Response Rate (%) CR: 20%
  Response Rate (%) PR: 20%
  Survivors (%): 100%
[5]; irinotecan 200 mg/kg/wk × 4 i.v.
  Survivors (%): 45%
[5]; irinotecan 300 mg/kg/wk × 4 i.v.
  Survivors (%): 0%
Normal nude mice [3]; [10]
  animals survived treatment: 100%
  weight loss: less than 20%
Normal nude mice [3]; [8]
  animals died by the end of treatment: 55%
Normal nude mice [3]; normal nude mice, irinotecan i.v. weekly ×4
  maximum tolerated dose (MTD): 100 mg/kg/wk
Normal rats; rats, irinotecan 200 mg/kg/day for 3 days i.v. (twice MTD), MSC 1 mg/kg/rat daily ×18 p.o.
  animals died: all the animals
